Our source for the EC50, IC50 and outcome values is PubChem BioAssay AID179 (DTP/NCI, 2004).

The source made the active and inactive calls.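 The calls were made as follows: active = compounds giving half or more protection of infected cells from virus-caused growth loss, again on retest; inactive = the rest.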 Where a SMILES comes first, the peptide text is derived from it. The star is where a group is joined. Boc = CC(C)(C)OC(=O)*; OBn = c1ccc(CO*)cc1; Bn = c1ccc(C*)cc1 Some results are limits rather than exact numbers.

This assay concerns CEM cells HIV-1 protection, formazan growth assay. Description: NCI AIDS Antiviral Assay. As to conditions: for IC50: measured here: growth of uninfected CEM cells. Put shortly: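 Protection of CEM cells against HIV-1 measured as cell growth via soluble formazan read-out, with five concentrations tested on both infected and uninfected cells; failure to protect may reflect toxicity.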

The EC50 is the concentration giving half of the maximal effect. Broadly, the IC50 is the concentration that gives 50% inhibition. Low readings indicate higher potency, high ones lower potency. Take `COc1ccc(-c2coc3cc(OC)c(OC)c(OC)c3c2=O)cc1`: the EC50 is more than 200 µM and the half-inhibitory concentration (IC50) is more than 200 µM. Regarding `CCOC(=O)n1c(=O)nc2c3c(ncn21)Oc1c(c(-c2ccccc2)nn1-c1ccccc1)C3c1ccc(Cl)cc1` (configuration not stated), the EC50 is more than 200 µM and the IC50 is 2.29 µM.

Take `CC(=O)Nc1ccc(C(=O)NN2C(=O)C(Cl)C2c2ccc(O)cc2)cc1` (configuration not stated): the EC50 is more than 200 µM and the concentration for half-maximal inhibition (IC50) is more than 200 µM. With `COc1cc2oc(-c3ccc4c(c3)OCO4)c(OC)c(=O)c2c(OC)c1OC`, the EC50 is 155 µM and the half-maximal inhibitory concentration (IC50) is more than 200 µM. For `CCOC(=O)C1C/C(C)=C(/C)SCCCS1` (configuration not stated), in that order: more than 200 µM and 45.7 µM. Taken in the same sequence, the figures for `N#Cc1nc(CCC(c2nc(C#N)c(N)o2)N2C(=O)c3ccccc3C2=O)oc1N` (configuration not stated) were more than 200 µM and more than 200 µM. For `Cc1nc2c3c(Cc4ccccc4)c(C)[nH]c3ncn2n1`, in that order: more than 200 µM and 117 µM.

For the molecule `S=C1SCN(C(c2ccccc2)c2ccccc2)CN1C(c1ccccc1)c1ccccc1`, the EC50 is more than 200 µM and the 50% inhibitory concentration (IC50) was 4.47 µM. Turning to `CC(=O)c1sc2c(c1OC(=O)c1ccccc1)c(=O)n(-c1ccccc1)c(=S)n2-c1ccccc1`, the EC50 is more than 2 µM and the 50% inhibitory concentration (IC50) was found to be 0.0631 µM. Taken in the same sequence, the figures for `COC(=O)C(C)Oc1ccc(O)cc1` (configuration not stated) were more than 1260 µM and more than 1260 µM. As to `C=CCCCC12CCCc3cccc(c31)NC2=S` (configuration not stated), the EC50 was more than 200 µM and the half-inhibitory concentration (IC50) worked out at 14.1 µM. Taken in the same sequence, the figures for `O=C1C(=Cc2ccccc2[N+](=O)[O-])N=C(c2ccccc2)N1n1c(-c2ccccc2)nc2ccccc2c1=O` were more than 200 µM and 29.5 µM.

For the molecule `O=C(O)C(=O)O`, the concentration for a half-maximal effect (EC50) was more than 427 µM and the half-inhibitory concentration (IC50) is more than 427 µM. On to `COC(=O)C(c1ccccc1)C(SCc1ccccc1)c1ccccc1` (configuration not stated), for which the EC50 was more than 200 µM and the concentration for half-maximal inhibition (IC50) is more than 200 µM.

`COc1ccccc1Nc1nc2c([nH]1)c(=O)n(C)c(=O)n2C`: the EC50 is more than 200 µM and the IC50 is more than 200 µM. Take `CC1(C)CC(=O)C2=C(C1)NC1=C(C2)C(=O)CC(C)(C)C1`: the EC50 is more than 200 µM and the IC50 was more than 200 µM.

`O=C(O)c1cc(O)ccc1O`: the EC50 was more than 200 µM and the 50% inhibitory concentration (IC50) was more than 200 µM. Take `c1scc2c1COCCOCCOCCOCCOC2`: the EC50 was more than 832 µM and the half-inhibitory concentration (IC50) is more than 832 µM. `COC(=O)c1ccc(CSc2ccc(Cl)cc2)cc1`: the EC50 is more than 4.9 µM and the 50% inhibitory concentration (IC50) came to 3.55 µM. In the case of `COC(=O)C1=COC(C)C2CN3CCC4(C(=O)Nc5ccccc54)C3CC12` (configuration not stated), the result was inactive. In the case of `CN1/C(=C/C=C/C=C/C=C2C(=O)c3ccccc3C2=O)C(C)(C)c2ccccc21`, the EC50 is 120 µM and the half-inhibitory concentration (IC50) was found to be 151 µM. Regarding `CSC1=Nc2ccccc2N=C(c2ccc(Cl)cc2)C1`, the EC50 is more than 12.6 µM and the 50% inhibitory concentration (IC50) was more than 12.6 µM. For `Cc1cc(N(CCC#N)S(=O)(=O)c2ccccc2)ccc1/C=C1\N=C(c2ccc(Cl)cc2)OC1=O`, the EC50 is more than 257 µM and the IC50 is more than 257 µM. With `Cc1cn(C2CC(COCc3ccccc3)N(CCO)O2)c(=O)[nH]c1=O` (configuration not stated), the EC50 was more than 200 µM and the IC50 was more than 200 µM. Regarding `CC(=O)c1sc2c(c1OC(=O)c1ccco1)c(=O)n(-c1ccccc1)c(=S)n2-c1ccccc1`, the EC50 was more than 200 µM and the concentration for half-maximal inhibition (IC50) amounted to 9.77 µM. For `COn1oc(=O)c2ccccc21`, in that order: more than 200 µM and more than 200 µM.

With `NC(=O)c1csc(C2OC(COP(=O)(O)CP(=O)(O)OCC3OC(n4cnc5c(N)ncnc54)C(O)C3O)C(O)C2O)n1` (configuration not stated), the EC50 is more than 151 µM and the concentration for half-maximal inhibition (IC50) amounted to 91.2 µM. Take `CC(=O)/C(=C/N1CCNC1=S)C(=O)Nc1ccc(Cl)cc1`: the outcome was inactive. As for `COc1cc2c(c3c1C1Oc4cc(OCc5ccccc5)c(O)cc4C1C(C)(C)O3)CCC(C)(C)O2` (configuration not stated), the EC50 was more than 200 µM and the half-inhibitory concentration (IC50) is 36.3 µM.

Regarding `O=c1cn[nH]c2cccc(Cl)c12`, the EC50 is more than 117 µM and the IC50 was more than 117 µM. In the case of `CCOC(=O)CC(NCCSS(=O)(=O)O)C(=O)OCC` (configuration not stated), the EC50 is more than 200 µM and the half-maximal inhibitory concentration (IC50) was more than 200 µM. Turning to `Brc1ccc(C2CC(c3cccc4ccccc34)=Nc3ccccc3S2)cc1` (configuration not stated), the EC50 was more than 11.7 µM and the half-maximal inhibitory concentration (IC50) was more than 11.7 µM.

With `CC(=O)CC(OC(C)=O)C1=CCC2C(CC1C)OC(=O)C2C` (configuration not stated), the EC50 was more than 224 µM and the concentration for half-maximal inhibition (IC50) was 39.8 µM. Take `CC1=N/C(=C\c2cccc([N+](=O)[O-])c2)C(=O)O1`: the EC50 was more than 562 µM and the concentration for half-maximal inhibition (IC50) is more than 562 µM. Take `CCOC(=O)/C(=C\c1cccc(C)c1)C(C)=O`: the EC50 is more than 407 µM and the half-inhibitory concentration (IC50) came out at 63.1 µM. Taken in the same sequence, the figures for `O=C1O[C@H](C(Cl)(Cl)Cl)N2CCCC12` (some centres not stated) were more than 204 µM and more than 204 µM.

As to `Cc1c([N+](=O)[O-])oc2c1C(=O)NCCC2`, the EC50 is more than 437 µM and the IC50 was 70.8 µM. For `CC(C)(C)C1CCC2c3c([nH]c4ccccc34)C3C(=O)N(c4ccc(Br)cc4)C(=O)C3C2C1` (configuration not stated), in that order: more than 14.5 µM and more than 14.5 µM. For `CCOC(=O)c1ccc(CSc2ccc(OC)cc2)c([N+](=O)[O-])c1`, in that order: more than 102 µM and 19.1 µM. On to `CSc1ncnc2c1ncn2C1CC(Oc2ccc(C)cc2)C(COc2ccc(C)cc2)O1` (configuration not stated), for which the EC50 was more than 200 µM and the concentration for half-maximal inhibition (IC50) worked out at 30.9 µM.

`C/C=C/C1C=Cc2ccccc2C1(C)C1=NC(C)(C)CO1` (configuration not stated): the EC50 is more than 25.7 µM and the IC50 is more than 25.7 µM. Take `CC(C)CC(NC(=O)C(CCC(=O)OCc1ccccc1)NC(=O)OC(C)(C)C)C(=O)NC(COCc1ccccc1)C(=O)NC(Cc1ccccc1)C(=O)O` (configuration not stated) (Boc-E(OBn)LS(Bn)F-OH; configuration not given here): the EC50 is more than 200 µM and the IC50 was more than 200 µM. On to `CCN(CC)CC1CCCCN1CC(=O)N1c2cc(Cl)ccc2NC(=O)CC1C` (configuration not stated), for which the EC50 was 97.7 µM and the concentration for half-maximal inhibition (IC50) is more than 200 µM.

`C[N+](C)([O-])CCCNc1c2ccccc2nc2cccc([N+](=O)[O-])c12`: the EC50 was more than 20 µM and the 50% inhibitory concentration (IC50) is 0.186 µM. Taken in the same sequence, the figures for `NS(=O)(=O)c1ccc(-c2c3nc(c(-c4ccc(S(N)(=O)=O)cc4)c4ccc([nH]4)c(-c4ccc(S(N)(=O)=O)cc4)c4nc(c(-c5ccc(S(N)(=O)=O)cc5)c5ccc2[nH]5)C=C4)C=C3)cc1` were more than 97.7 µM and 46.8 µM. For the molecule `C[N+]12C=CC=C1C(N1CCCC1)c1scc(-c3ccccc3)c12` (configuration not stated), the EC50 was more than 200 µM and the 50% inhibitory concentration (IC50) is 17.8 µM. For `N#Cc1c(SCc2ccccc2)nc(-c2ccccc2)[nH]c1=S`, in that order: more than 151 µM and 19.5 µM. Taken in the same sequence, the figures for `CN(C(=O)c1ccc(Cl)cc1)C(=S)N1CCN(c2ccccn2)CC1` were more than 69.2 µM and 61.7 µM.

Take `COC(=O)C1Cc2c(n(C)c3ccccc23)C(CCC(=O)O)N1Cc1ccccc1` (configuration not stated): the result was inactive. Regarding `CCOC(=O)CCCSCCCC1(CCCSCCCC(=O)OCC)OCCO1`, the EC50 was more than 39.8 µM and the IC50 is more than 39.8 µM. Turning to `CC1=C(C(=O)Nc2cccc(C(F)(F)F)c2)C(c2ccccc2F)C(C(=O)Nc2cccc(C(F)(F)F)c2)=C(C)N1`, the EC50 was more than 32.4 µM and the half-inhibitory concentration (IC50) worked out at 18.6 µM. For the molecule `O=C1C(Cl)=C(Cl)C(=O)N1c1ccc(F)cc1`, the outcome was inactive. For `Brc1ccc2[nH]c3nc(N/N=C/c4cccnc4)nnc3c2c1`, the EC50 is more than 200 µM and the IC50 was more than 200 µM. Turning to `O=C(O)CCCc1cc2c(s1)-c1cccc3cccc-2c13`, the EC50 is more than 33.9 µM and the IC50 was more than 33.9 µM. For `COc1ccc(NC(=O)CC(=O)Nc2ccc(OC)cc2)cc1`, the EC50 is 170 µM and the half-inhibitory concentration (IC50) is more than 200 µM. Taken in the same sequence, the figures for `COC(=O)[C@]1(C)CCC[C@]2(C)c3cc(C(C)=O)c(C(C)C)cc3CC[C@@H]12` were more than 200 µM and 25.7 µM.

As for `O=C(c1nc2ccc(Cl)cc2[nH]c1=O)C(O)c1ccccc1` (configuration not stated), the EC50 was more than 575 µM and the concentration for half-maximal inhibition (IC50) is 11.5 µM. Taken in the same sequence, the figures for `CC(C)/C(Cl)=N\OC(=O)Nc1ccccc1F` were more than 200 µM and 7.94 µM. Taken in the same sequence, the figures for `Nc1nnc2c(n1)[nH]c1ccccc12` were more than 74.1 µM and more than 74.1 µM. Taken in the same sequence, the figures for `COC(NC(=O)Nc1ccccc1C)(C(F)(F)F)C(F)(F)F` were more than 200 µM and 57.5 µM. For the molecule `O=S(=O)(F)c1ccc(C[P+](c2ccccc2)(c2ccccc2)c2ccccc2)c(Cl)c1`, the EC50 was more than 200 µM and the 50% inhibitory concentration (IC50) came out at 45.7 µM.

As to `O=C1Nc2ccc([N+](=O)[O-])c3c([N+](=O)[O-])ccc1c23`, the EC50 was more than 200 µM and the IC50 is 1.02 µM. With `COC(=O)Cc1c([C@@]2(C)CCCC(C)(C)C2)ccc2c1C(=O)OC2`, the outcome was inactive. On the same count and under the same terms, the entry for `C[C@@]1(O)C2C3CC4C5C3C1[C@](O)(C42)[C@H]5Br` (some centres not stated) is “inactive”. As to `Cn1c(=O)c2c(ncn2Cc2ccc(O)c([N+](=O)[O-])c2)n(C)c1=O`, the EC50 is more than 200 µM and the IC50 is more than 100 µM. Taken in the same sequence, the figures for `C=C(C)CC(C)(c1cc2ccccc2n1C)N1CCOCC1` (configuration not stated) were more than 100 µM and 64.6 µM. On to `CC1(O)CCC2(CCC(C)(O)CC2=O)C(=O)C1` (configuration not stated), for which the EC50 is more than 200 µM and the half-inhibitory concentration (IC50) was more than 200 µM.

`C/C(CC(=O)CCCC(=O)Nc1ccc(Cl)cc1Cl)=N/NC(=O)CC#N`: the EC50 is more than 18.2 µM and the IC50 is more than 18.2 µM. Consider `CC(=O)C(CN(C)C)C(c1ccccc1)c1c(O)c2ccccc2oc1=O` (configuration not stated), for which the EC50 was more than 64.6 µM and the 50% inhibitory concentration (IC50) was 11 µM. On to `O=C1C=CC(=O)c2cc(Sc3ccccc3)c(=O)ccc21`, for which the EC50 is more than 123 µM and the IC50 amounted to 1.26 µM.

Consider `c1ccc(CN(Cc2ccccn2)Cn2cccn2)nc1`, for which the result was inactive. Regarding `CCC1=NC(N/N=C/c2ccco2)=N/C1=C\c1ccco1`, the EC50 is more than 200 µM and the IC50 is 110 µM.
